According to publication PMC10884759, “Decreased pyruvate dehydrogenase activity in Tafazzin-deficient cells is caused by dysregulation of pyruvate dehydrogenase phosphatase 1 (PDP1)” (The Journal of Biological Chemistry, 2024):

Molecular target: T1, PDP1 (PDH phosphatase 1; PDP1-His6) (Mus musculus, UniProt Q3UV70)
T1 construct: mature polypeptide (transit peptide removed; forward primer encodes ASTPQKFY after start Met), C-terminal His6 from pET-28a, E. coli BL21(DE3) with pGro7 chaperones, Ni-NTA purified
T1 sequence (Q3UV70 72-538): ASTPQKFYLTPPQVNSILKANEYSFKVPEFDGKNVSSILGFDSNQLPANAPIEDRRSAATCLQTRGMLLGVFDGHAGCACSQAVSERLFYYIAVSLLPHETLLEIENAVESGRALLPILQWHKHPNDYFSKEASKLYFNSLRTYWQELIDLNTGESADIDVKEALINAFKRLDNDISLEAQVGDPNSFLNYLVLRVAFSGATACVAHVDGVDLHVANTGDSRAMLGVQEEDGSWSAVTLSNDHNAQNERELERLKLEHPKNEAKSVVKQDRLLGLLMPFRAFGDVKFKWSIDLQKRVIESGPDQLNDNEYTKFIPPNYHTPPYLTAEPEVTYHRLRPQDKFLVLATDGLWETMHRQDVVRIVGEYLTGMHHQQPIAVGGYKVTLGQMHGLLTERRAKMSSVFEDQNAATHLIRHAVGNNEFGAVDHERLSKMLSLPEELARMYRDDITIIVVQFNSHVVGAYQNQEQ
Assay: protein-lipid overlay on PVDF, anti-His immunoblot
Assay type: binding
Conditions: lipid spotted at 31.25-500 μM, 1 μl; pH 7.5, 4 °C overnight, 3% BSA

Row | Structure (SMILES) | protein-lipid overlay on PVDF, anti-His immunoblot
1 | CCCCC/C=C\C/C=C\CCCCCCCC(=O)OC[C@H](COP(=O)(O)OCC(O)COP(=O)(O)OC[C@@H](COC(=O)CCCCCCC/C=C\C/C=C\CCCCC)OC(=O)CCCCCCC/C=C\C/C=C\CCCCC)OC(=O)CCCCCCC/C=C\C/C=C\CCCCC (some centres unmarked) [TLCL] | only PDP1 was shown to bind with TLCL (Fig. 2B)
2 | CCCCCCCC/C=C\CCCCCCCC(=O)OC[C@H](COP(=O)(O)O)OC(=O)CCCCCCC/C=C\CCCCCCCC [phosphatidic acid] | PA is also bound to PDP1 (and to E1)
